Our source for the EC50 and CC50 values is US8536187B2 (Gilead Sciences, Inc., priority 2008, dated 2013).

Data set [1] concerns HCV replicon in human hepatoma Huh-7 cell line. As to the kind of experiment: Anti-HCV replicon assay, EC50 (luciferase luminescence). Format: cell-based. Particulars: Hepatitis C virus, Huh-7, 72 h. The method, boiled down: (§1)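 Cytotoxicity (CC50) read by CellTiter-Glo luminescence after 10 min, and antiviral EC50 by luciferase signal after 30 min lysis with substrate, both at room temperature. Preceding step: 3-day exposure of 6000 Huh-7 HCV replicon cells per well to compound dilution series at 37° C, 5% CO2, in 0.5% DMSO.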
(Replicon systems follow genome replication, usually without infectious particles.)

Data set [2] can be described thus: CC50 assay (CellTiter-Glo) in Huh-7 HCV replicon cells. The class given is cell-based. Particulars: human. A digest of the protocol:
as §1
(Cellular ATP, detected with luciferase, serves as a proxy for viable cell number.)

As a reminder, the EC50 is the concentration giving half of the maximal effect. A higher EC50 goes with a need for much substance. One may read the CC50 as the concentration at which the toxic effect on the cells reaches its halfway point. A high value points to better tolerance by the cells.

Bounds are passed on as bounds.

`CC[C@@H](Nc1nc(NCC(F)(F)F)c2nc(-c3ccc(F)cc3)ccc2n1)c1ccccc1S(N)(=O)=O` [Example 11, (R)-2-{1-[6-(4-Fluoro-phenyl)-4-(2,2,2-trifluoro-ethylamino)-pyrido[3,2-d]pyrimidin-2-ylamino]-propyl}-benzenesulfonamide] displayed a concentration for a half-maximal effect (EC50) in data set [1] of 250 to 2000 nM. The half-maximal cytotoxic concentration (CC50) at 3 days in data set [2] (Table 1, 3 days incubation) is greater than 25000 nM.

For the molecule `C[C@@H](Nc1nc(NC2(C(F)(F)F)CC2)c2nc(-c3ccc(F)cc3)ccc2n1)c1ccc(S(N)(=O)=O)c(C(F)(F)F)c1` [Example 119, (R)-4-(1-(6-(4-fluorophenyl)-4-(1-(trifluoromethyl)cyclo-propylamino)pyrido[3,2-d]pyrimidin-2-ylamino)ethyl)-2-(trifluoromethyl)benzene-sulfonamide], the concentration for a half-maximal effect (EC50) in data set [1] lay in the range of 250 to 2000 nM. Further, the cytotoxic concentration (CC50) at 3 days in data set [2] (Table 2, 3 days incubation) is greater than 10000 nM.

In data set [1], `C[C@@H](Nc1nc(NCC(F)(F)F)c2nc(-c3ccc(Cl)c(S(C)(=O)=O)c3)ccc2n1)c1ccc(S(N)(=O)=O)cc1` [Example 155, 4-((R)-1-(6-(4-chloro-3-(methylsulfonyl)phenyl)-4-(2,2,2-trifluoroethylamino)pyrido[3,2-d]pyrimidin-2-ylamino)ethyl)benzene-sulfonamide] gave a concentration for a half-maximal effect (EC50) of less than 100 nM. In addition, in data set [2] (Table 2, 3 days incubation), the CC50 at 3 days fell in the range of 1000 to 10000 nM.

In data set [1], `CS(=O)(=O)c1cc(-c2ccc3nc(NCc4ccc(-n5cncn5)cc4)nc(OC4CCC4)c3n2)ccc1OC(F)F` [Example 204, N-(4-(1H-1,2,4-triazol-1-yl)benzyl)-4-cyclobutoxy-6-(4-(difluoromethoxy)-3-(methylsulfonyl)phenyl)pyrido [3,2-d]pyrimidin-2-amine] had an EC50 of less than 100 nM. Moreover, the CC50 at 3 days in data set [2] (Table 2, 3 days incubation) lay in the range of 1000 to 10000 nM.

`COc1ccc(-c2ccc3nc(NCc4ccc(S(N)(=O)=O)cc4)nc(NC4(C#N)CC4)c3n2)cn1` [Example 132, 4-((4-(1-cyanocyclopropylamino)-6-(6-methoxypyridin-3-yl)pyrido[3,2-d]pyrimidin-2-ylamino)methyl)benzene-sulfonamide] came in with an EC50 in data set [1] of less than 100 nM. In data set [2] (Table 2, 3 days incubation), this molecule displayed a CC50 at 3 days greater than 10000 nM.

Take `CS(=O)(=O)c1cccc(-c2ccc3nc(NC4CC4)nc(NCC(F)(F)F)c3n2)c1` [Example 138, N^2-cyclopropyl-6-(3-(methylsulfonyl)phenyl)-N^4-(2,2,2-trifluoroethyl)pyrido [3,2-d]pyrimidine-2,4-diamine]: the concentration for a half-maximal effect (EC50) in data set [1] is 100 to 250 nM. The molecule also registered a CC50 at 3 days in data set [2] (Table 2, 3 days incubation) greater than 10000 nM.

`COc1ccc(-c2ccc3nc(NCc4ccc(S(N)(=O)=O)cc4)nc(NCC(F)(F)F)c3n2)cc1S(=O)(=O)N1CCOCC1` [Example 227, 4-((6-(4-methoxy-3-(morpholinosulfonyl)phenyl)-4-(2,2,2-trifluoroethylamino)pyrido[3,2-d]pyrimidin-2-ylamino)methyl)benzene-sulfonamide] returned an EC50 in data set [1] of less than 100 nM. In data set [2] (Table 2, 3 days incubation), the CC50 at 3 days fell in the range of 1000 to 10000 nM.

Take `c1ncn(-c2ccc(CNc3nc(C4CC4)c4nc(-c5ccc(OC6CC6)nc5)ccc4n3)cc2)n1` [Example 267, N-(4-(1H-1,2,4-triazol-1-yl)benzyl)-6-(6-cyclopropoxy-pyridin-3-yl)-4-cyclopropyl-pyrido[3,2-d]pyrimidin-2-amine]: the EC50 in data set [1] lay within 100 to 250 nM. In addition, in data set [2] (Table 2, 3 days incubation), the CC50 at 3 days was greater than 10000 nM.

Regarding `C#Cc1ccc2nc(N[C@H](C)c3ccc(S(N)(=O)=O)cc3)nc(NCC(F)(F)F)c2n1` [Example 284, (R)-4-(1-(6-ethynyl-4-(2,2,2-trifluoroethylamino)pyrido [3,2-d]pyrimidin-2-ylamino)ethyl)benzenesulfonamide], the EC50 in data set [1] was less than 100 nM. In data set [2] (Table 2, 3 days incubation), this molecule returned a 50% cytotoxic concentration (CC50) at 3 days greater than 10000 nM.

On to `CCOc1ccc(-c2ccc3nc(NCc4ccc(-n5cncn5)cc4)nc(NC4(C(F)(F)F)CC4)c3n2)cn1` [Example 52, N^2-(4-(1H-1,2,4-triazol-1-yl)benzyl)-6-(6-ethoxypyridin-3-yl)-N^4-(1-(trifluoromethyl)cyclopropyl)pyrido[3,2-d] pyrimidine-2,4-diamine], for which the 50% effective concentration (EC50) in data set [1] is less than 100 nM. In addition, in data set [2] (Table 2, 3 days incubation), the CC50 at 3 days was 1000 to 10000 nM.

As for `CS(=O)(=O)c1cccc(-c2ccc3nc(NCc4cccc(-n5cncn5)c4)nc(NCC(F)(F)F)c3n2)c1` [Example 16, 6-(3-Methanesulfonyl-phenyl)-N2-(3-[1,2,4]-triazol-1-yl-benzyl)-N4-(2,2,2-trifluoro-ethyl)-pyrido[3,2-d]pyrimidine-2,4-diamine], the concentration for a half-maximal effect (EC50) in data set [1] was less than 100 nM. The same molecule yielded a half-maximal cytotoxic concentration (CC50) at 3 days in data set [2] (Table 1, 3 days incubation) greater than 25000 nM.

In turn, `Cc1cc(S(N)(=O)=O)ccc1[C@@H](C)Nc1nc(NC2(C(F)(F)F)CC2)c2nc(-c3ccc(F)cc3)ccc2n1` [Example 117, (R)-4-(1-(6-(4-fluorophenyl)-4-(1-(trifluoromethyl)cyclopropyl-amino)pyrido[3,2-d]pyrimidin-2-ylamino)ethyl)-3-methylbenzene-sulfonamide] came in with an EC50 in data set [1] of less than 100 nM. This molecule showed a CC50 at 3 days in data set [2] (Table 2, 3 days incubation) greater than 10000 nM.

For `NS(=O)(=O)c1ccc(CNc2nc(NC3(C(F)(F)F)CC3)c3nc(-c4ccc(N5CCCS5(=O)=O)cc4)ccc3n2)cc1` [Example 130, 4-((6-(4-(1,1-dioxo-isothiazolidin-2-yl)phenyl)-4-(1-(trifluoromethyl)cyclopropyl-amino)pyrido[3,2-d]pyrimidin-2-ylamino)methyl)benzene-sulfonamide], the EC50 in data set [1] is less than 100 nM. Moreover, the CC50 at 3 days in data set [2] (Table 2, 3 days incubation) was less than 1000 nM.

Molecule `CS(=O)(=O)c1cc(-c2ccc3nc(NCc4cc(F)cc(S(N)(=O)=O)c4)nc(NC4(C(F)(F)F)CC4)c3n2)ccc1Cl` [Example 36, 3-((6-(4-chloro-3-(methylsulfonyl)phenyl)-4-(1-(trifluoromethyl)cyclopropyl-amino)pyrido[3,2-d]pyrimidin-2-ylamino)methyl)-5-fluorobenzenesulfonamide] displayed an EC50 in data set [1] of less than 100 nM. Besides, the 50% cytotoxic concentration (CC50) at 3 days in data set [2] (Table 2, 3 days incubation) lay within 1000 to 10000 nM.

Turning to `Cc1ccc(-c2ccc3nc(NCc4ccc(S(N)(=O)=O)cc4)nc(NCC(F)(F)F)c3n2)cc1S(C)(=O)=O` [Example 143, 4-((6-(4-methyl-3-(methylsulfonyl)phenyl)-4-(2,2,2-trifluoroethylamino)pyrido[3,2-d]pyrimidin-2-ylamino)methyl)benzene-sulfonamide], in data set [1], the concentration giving a half-maximal response (EC50) is less than 100 nM. Moreover, the CC50 at 3 days in data set [2] (Table 2, 3 days incubation) is greater than 10000 nM.

In the case of `COc1ccc(-c2ccc3nc(N[C@H](C)c4ccc(-n5cncn5)cc4)nc(NC4(C(F)(F)F)CC4)c3n2)cc1S(C)(=O)=O` [Example 94, N^2-((R)-1-(4-(1H-1,2,4-triazol-1-yl)phenyl)ethyl)-6-(4-methoxy-3-(methylsulfonyl)phenyl)-N^4-(1-(trifluoromethyl)cyclopropyl) pyrido[3,2-d]pyrimidine-2,4-diamine], the EC50 in data set [1] was less than 100 nM. Moreover, in data set [2] (Table 2, 3 days incubation), the CC50 at 3 days fell in the range of 1000 to 10000 nM.

`COc1ccc(-c2ccc3nc(NCc4cc(C(F)(F)F)cc(S(N)(=O)=O)c4)nc(NCC(F)(F)F)c3n2)cc1S(C)(=O)=O` [Example 141, 3-((6-(4-methoxy-3-(methylsulfonyl)phenyl)-4-(2,2,2-trifluoroethylamino)pyrido[3,2-d]pyrimidin-2-ylamino)methyl)-5-(trifluoromethyl)benzene-sulfonamide] returned a half-maximal effective concentration (EC50) in data set [1] of less than 100 nM. In addition, the CC50 at 3 days in data set [2] (Table 2, 3 days incubation) was greater than 10000 nM.

In turn, `Cc1nc(C)n(-c2ccc(CNc3nc(OC4(C)CC4)c4nc(-c5ccc(OC(F)F)c(S(C)(=O)=O)c5)ccc4n3)cc2)n1` [Example 205, N-(4-(3,5-dimethyl-1H-1,2,4-triazol-1-yl)benzyl)-6-(4-(difluoromethoxy)-3-(methylsulfonyl)phenyl)-4-(1-methylcyclopropoxy)pyrido [3,2-d]pyrimidin-2-amine] had a 50% effective concentration (EC50) in data set [1] of less than 100 nM. In data set [2] (Table 2, 3 days incubation), this molecule displayed a half-maximal cytotoxic concentration (CC50) at 3 days greater than 10000 nM.

In the case of `CCS(=O)(=O)c1cc(-c2ccc3nc(NCc4ccc(S(N)(=O)=O)cc4)nc(NCC(F)(F)F)c3n2)ccc1OC` [Example 149, 4-((6-(3-(ethylsulfonyl)-4-methoxyphenyl)-4-(2,2,2-trifluoroethylamino)pyrido[3,2-d]pyrimidin-2-ylamino)methyl) benzenesulfonamide], the EC50 in data set [1] is less than 100 nM. The same molecule yielded a CC50 at 3 days in data set [2] (Table 2, 3 days incubation) greater than 10000 nM.

With `COc1ccc(-c2ccc3nc(NCc4cc(F)cc(F)c4)nc(NC4(C(F)(F)F)CC4)c3n2)cc1S(C)(=O)=O` [Example 40, N^2-(3,5-difluorobenzyl)-6-(4-methoxy-3-(methylsulfonyl)phenyl)-N^4-(1-(trifluoromethyl)cyclopropyl)pyrido[3,2-d] pyrimidine-2,4-diamine], the concentration giving a half-maximal response (EC50) in data set [1] is less than 100 nM. In data set [2] (Table 2, 3 days incubation), the CC50 at 3 days is 1000 to 10000 nM.

On to `CCOc1ccc(-c2ccc3nc(N[C@H](C)c4ccc(S(N)(=O)=O)cc4)nc(NCC(F)(F)F)c3n2)cc1S(N)(=O)=O` [Example 261, 4-((R)-1-(6-(4-ethoxy-3-(aminosulfonyl)phenyl)-4-(2,2,2-trifluoroethylamino)pyrido[3,2-d]pyrimidin-2-ylamino)ethyl)benzene-sulfonamide], for which the EC50 in data set [1] was less than 100 nM. The same molecule came in with a 50% cytotoxic concentration (CC50) at 3 days in data set [2] (Table 2, 3 days incubation) greater than 10000 nM.

`C#Cc1ccc2nc(NCc3ccc(S(N)(=O)=O)cc3)nc(NCC(F)(F)F)c2n1` [Example 288, 4-((6-ethynyl-4-(2,2,2-trifluoroethylamino)pyrido [3,2-d]pyrimidin-2-ylamino)methyl)benzenesulfonamide] yielded an EC50 in data set [1] of less than 100 nM. This molecule gave a 50% cytotoxic concentration (CC50) at 3 days in data set [2] (Table 2, 3 days incubation) of 1000 to 10000 nM.

In the case of `CCOc1ccc(-c2ccc3nc(NCc4ccc(-n5cncn5)cc4)nc(OC4(C)CC4)c3n2)cc1S(N)(=O)=O` [Example 263, 5-(2-(4-(1H-1,2,4-triazol-1-yl)benzylamino)-4-(1-methylcyclopropoxy)pyrido [3,2-d)pyrimidin-6-yl)-2-ethoxybenzenesulfonamide], the EC50 in data set [1] is less than 100 nM. The half-maximal cytotoxic concentration (CC50) at 3 days in data set [2] (Table 2, 3 days incubation) fell in the range of 1000 to 10000 nM.

As for `CC#Cc1ccc2nc(N[C@H](C)c3ccc(S(N)(=O)=O)cc3)nc(OC3CCC3)c2n1` [Example 310, (R)-4-(1-(4-cyclobutoxy-6-(prop-1-ynyl)pyrido[3,2-d]pyrimidin-2-ylamino)ethyl) benzenesulfonamide], the concentration for a half-maximal effect (EC50) in data set [1] is less than 100 nM. This molecule returned a CC50 at 3 days in data set [2] (Table 2, 3 days incubation) greater than 10000 nM.
